# Data reported in the supplement of paper PMC10307832.
# Assays:
# Test in all cases: relative viability (nuclei count vs DMSO), 5 days (fraction); higher = more cells survive
# GSK-J4 + Alpelisib = compound: CCOC(=O)CCNc1cc(N2CCc3ccccc3CC2)nc(-c2ccccn2)n1 [GSK-J4] + Cc1nc(NC(=O)N2CCC[C@H]2C(N)=O)sc1-c1ccnc(C(C)(C)C(F)(F)F)c1 [Alpelisib] (partner 2 µM)
# Outline: (§1)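 Lung cancer cell lines were pin-tool dosed in 1536-well plates on the day after seeding, with either a lone drug or a fixed anchor-drug dose plus five library-drug doses (not always all listed) in √10 steps. Nuclei were counted on 4× images after 5 days. Relative viability is the ratio of treated-well to vehicle-well nuclei counts, with each value a median of duplicate plates.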
# AZ3146 + Vorinostat = compound: CN1CCC(CC1)OC2=CC(=C(C=C2)NC3=NC=C4C(=N3)N(C(=O)N4C)C5CCCC5)OC [AZ3146] + O=C(CCCCCCC(=O)Nc1ccccc1)NO [Vorinostat] (partner 1 µM)
# Outline: as §1
# GSK-J4 + Trametinib = compound: CCOC(=O)CCNc1cc(N2CCc3ccccc3CC2)nc(-c2ccccn2)n1 [GSK-J4] + CC(=O)Nc1cccc(-n2c(=O)n(C3CC3)c(=O)c3c(Nc4ccc(I)cc4F)n(C)c(=O)c(C)c32)c1 [Trametinib] (partner 0.02 µM)
# Outline: as §1
# GSK-J4 + Phenformin = compound: CCOC(=O)CCNc1cc(N2CCc3ccccc3CC2)nc(-c2ccccn2)n1 [GSK-J4] + N=C(N)NC(=N)NCCc1ccccc1 [Phenformin] (partner 250 µM)
# Outline: as §1
Cell Line,relative viability (GSK-J4 + Alpelisib; first compound 0.5 µM),relative viability (GSK-J4 + Alpelisib; first compound 1.581 µM),relative viability (GSK-J4 + Alpelisib; first compound 5 µM),relative viability (GSK-J4 + Alpelisib; first compound 15.81 µM),relative viability (GSK-J4 + Alpelisib; first compound 50 µM),relative viability (AZ3146 + Vorinostat; first compound 0.08 µM),relative viability (AZ3146 + Vorinostat; first compound 0.253 µM),relative viability (AZ3146 + Vorinostat; first compound 0.8 µM),relative viability (AZ3146 + Vorinostat; first compound 2.53 µM),relative viability (AZ3146 + Vorinostat; first compound 8 µM),relative viability (GSK-J4 + Trametinib; first compound 0.5 µM),relative viability (GSK-J4 + Trametinib; first compound 1.581 µM),relative viability (GSK-J4 + Trametinib; first compound 5 µM),relative viability (GSK-J4 + Trametinib; first compound 15.81 µM),relative viability (GSK-J4 + Trametinib; first compound 50 µM),relative viability (GSK-J4 + Phenformin; first compound 0.5 µM),relative viability (GSK-J4 + Phenformin; first compound 1.581 µM),relative viability (GSK-J4 + Phenformin; first compound 5 µM),relative viability (GSK-J4 + Phenformin; first compound 15.81 µM),relative viability (GSK-J4 + Phenformin; first compound 50 µM)
201T,0.977,0.831,1.02,0.988,0.9,0.948,0.928,0.917,1.05,0.894,0.719,0.615,0.711,0.735,0.69,0.444,0.479,0.374,0.384,0.352
A549,0.765,0.578,0.669,0.823,0.691,,,,,,,,,,,0.146,0.156,0.0648,0.0756,0.103
A-427,1,,1.17,1.08,0.561,0.763,0.881,0.833,0.809,0.593,0.702,0.567,,0.559,0.552,0.406,,0.219,0.218,0.138
ABC-1,1.2,0.898,1.04,0.971,0.735,0.618,1.02,1.53,1.2,1.16,,,,,,0.232,0.259,0.245,0.217,0.201
BEN,1.04,0.882,,0.974,0.948,,0.54,0.608,0.558,0.588,1.1,0.883,0.88,0.896,0.917,0.25,0.261,,0.276,0.254
CAL-12T,1.12,1.11,1.43,1.29,1.29,0.695,0.743,0.832,0.778,0.553,0.337,0.314,0.424,0.288,0.254,0.702,0.549,0.532,0.554,0.42
COR-L23,0.677,0.709,,0.68,0.781,0.38,0.536,0.374,0.415,0.313,0.461,0.576,,0.544,0.429,0.412,0.408,,0.39,0.393
COR-L 105,1.11,0.99,1.07,0.912,1.16,0.819,0.887,0.902,0.879,0.487,0.467,,0.46,0.458,0.451,0.408,0.395,0.381,0.475,0.578
Calu-6,0.914,0.815,0.834,1.05,0.915,,,,,,,,,,,,,,,
ChaGo-K-1,,,,,,0.711,0.691,0.703,0.718,0.521,0.934,,0.939,0.841,0.808,0.488,0.49,0.438,0.475,0.422
EBC-1,0.742,0.72,0.9,0.824,0.423,,,,,,,,,,,,,,,
EKVX,0.848,0.769,0.952,0.824,0.776,0.608,0.81,0.818,0.885,0.681,0.337,,0.515,0.307,0.21,0.252,0.213,0.236,0.177,0.237
EMC-BAC-2,0.755,0.717,0.785,0.716,0.691,,,0.519,0.534,0.368,0.901,0.819,,0.777,0.831,0.502,0.471,0.267,0.51,0.34
EPLC-272H,0.887,,0.845,0.933,0.943,0.297,0.52,0.299,0.499,0.329,0.328,0.251,0.325,0.272,0.232,0.347,0.24,0.192,0.3,0.154
H3255,0.591,0.64,0.614,0.593,0.531,0.737,0.746,0.856,0.887,0.897,0.656,,0.53,0.48,0.541,0.331,0.381,0.36,0.312,0.365
HARA,0.815,0.441,,0.785,0.646,0.495,0.561,0.559,0.67,0.423,0.6,0.799,,0.516,0.471,0.455,,,0.396,0.386
HCC-15,0.909,0.751,0.912,0.868,0.571,0.779,0.796,0.885,0.887,0.687,0.376,0.377,0.413,0.298,0.272,0.458,,0.376,0.384,0.344
HCC-44,0.791,0.781,0.709,0.776,0.711,1.07,1.07,1.05,1.12,1.13,1.1,0.91,1.06,1.04,1.03,0.253,0.222,0.134,0.124,0.137
HCC-78,0.403,0.31,0.501,,0.316,,0.496,0.435,0.354,0.471,0.765,0.706,1.15,0.559,1.02,0.87,0.731,0.946,0.588,0.528
HCC-366,0.391,0.25,,0.305,0.365,0.192,0.408,0.352,0.278,0.14,0.354,0.319,,0.234,0.21,0.574,0.579,,0.482,0.59
HCC-827,0.981,1,1.02,0.915,0.939,0.774,0.916,0.641,0.844,0.892,0.566,0.58,0.72,0.448,0.513,0.366,0.383,0.426,0.355,0.398

Cell Line,relative viability (GSK-J4 + Alpelisib; first compound 0.5 µM),relative viability (GSK-J4 + Alpelisib; first compound 1.581 µM),relative viability (GSK-J4 + Alpelisib; first compound 5 µM),relative viability (GSK-J4 + Alpelisib; first compound 15.81 µM),relative viability (GSK-J4 + Alpelisib; first compound 50 µM),relative viability (AZ3146 + Vorinostat; first compound 0.08 µM),relative viability (AZ3146 + Vorinostat; first compound 0.253 µM),relative viability (AZ3146 + Vorinostat; first compound 0.8 µM),relative viability (AZ3146 + Vorinostat; first compound 2.53 µM),relative viability (AZ3146 + Vorinostat; first compound 8 µM),relative viability (GSK-J4 + Trametinib; first compound 0.5 µM),relative viability (GSK-J4 + Trametinib; first compound 1.581 µM),relative viability (GSK-J4 + Trametinib; first compound 5 µM),relative viability (GSK-J4 + Trametinib; first compound 15.81 µM),relative viability (GSK-J4 + Trametinib; first compound 50 µM),relative viability (GSK-J4 + Phenformin; first compound 0.5 µM),relative viability (GSK-J4 + Phenformin; first compound 1.581 µM),relative viability (GSK-J4 + Phenformin; first compound 5 µM),relative viability (GSK-J4 + Phenformin; first compound 15.81 µM),relative viability (GSK-J4 + Phenformin; first compound 50 µM)
HOP-62,0.956,1.01,1.12,0.912,0.859,0.337,0.664,0.598,0.699,0.385,0.39,0.309,0.334,0.337,0.301,0.612,0.548,0.558,0.665,0.528
IA-LM,0.77,0.693,0.887,0.693,0.149,0.674,0.872,1.01,0.924,1.06,,,,,,,,,,
LC-2-ad,0.725,0.764,0.857,0.877,0.87,0.629,0.703,0.69,0.694,0.603,0.847,0.76,0.835,0.908,0.886,0.635,0.499,0.495,0.568,0.432
LCLC-97TM1,,,0.271,0.24,0.164,0.356,0.761,0.631,0.635,0.653,0.182,0.155,0.168,0.128,0.156,0.369,0.327,0.397,0.339,0.264
LCLC-103H,0.934,0.859,1.09,0.986,1.11,0.51,0.726,0.78,0.844,0.711,0.68,0.64,0.674,0.622,0.626,0.32,0.296,0.224,0.331,0.33
LK-2,1.04,1.08,1.41,1.3,1.23,0.159,0.243,0.326,0.388,0.389,0.655,0.727,1.27,0.664,1.04,0.707,,0.416,0.23,0.253
LOU-NH91,0.743,0.689,0.649,0.688,0.672,0.866,0.837,0.968,1,0.832,0.816,0.427,0.638,0.718,0.803,0.716,0.69,0.561,0.647,0.802
LU99A,0.448,0.494,0.535,0.498,0.322,,0.507,0.503,0.514,0.481,0.551,0.485,,0.441,0.35,0.866,0.671,,0.757,0.554
LXF-289,0.971,0.957,1.04,0.991,0.956,0.752,0.827,0.796,0.872,0.587,0.696,0.592,0.688,0.654,0.584,0.506,0.445,0.408,0.53,0.515
NCI-H23,0.781,,0.892,0.605,0.604,0.473,0.593,0.572,0.769,0.377,0.354,0.367,0.393,0.285,0.34,0.71,0.723,0.627,0.648,0.671
NCI-H522,,,,,,0.66,0.695,0.945,0.903,0.835,0.817,0.6,,0.75,0.7,0.64,0.656,0.595,0.543,0.588
NCI-H1299,1.01,0.899,0.975,1.04,1.04,,,,,,,,,,,,,,,
NCI-H1563,0.885,0.85,0.872,0.891,1.02,,,,,,,,,,,0.665,0.71,0.607,0.56,0.656
NCI-H1623,,,,,,,,,,,,,,,,0.597,0.457,0.623,0.398,0.545
NCI-H1648,,,,,,,,0.554,0.498,0.634,0.467,,0.643,,0.429,,,,,
NCI-H1650,,,,,,0.578,0.392,0.563,0.554,0.475,0.678,0.56,0.608,0.646,0.419,0.512,0.415,0.375,0.4,0.408
NCI-H1703,0.286,0.461,0.289,0.372,0.363,,,,,,,,,,,,,,,
NCI-H1792,0.708,0.664,0.734,0.575,0.837,,,,,,0.523,0.44,0.468,0.39,0.38,0.267,0.258,0.185,0.529,0.318
NCI-H2342,,,,,,0.705,0.688,1.01,0.695,0.764,0.819,0.752,0.866,0.917,0.946,0.652,0.629,0.573,0.706,0.595
SW 900,,,,,,0.465,,0.393,0.48,0.446,0.548,0.691,0.877,0.785,0.83,0.581,0.592,0.617,0.402,0.246
